The source made the active and inactive calls. The rule behind the calls is not given here.
How the values were obtained:
[1] = molecular target: T1, Serine/threonine-protein kinase B-raf (Homo sapiens, UniProt P15056, V600E); experiment: Inhibition of BRAF V600E mutant in human HT-29 cells assessed as reduction of […] phosphorylation; assay type: cell-based
[2] = molecular target: Vascular endothelial growth factor receptor 2 (Homo sapiens, UniProt P35968); experiment: Inhibition of VEGFR2
[3] = molecular target: T1, Serine/threonine-protein kinase B-raf; experiment: Inhibition of recombinant BRAF V600E mutant using […] and [gamma-32P]ATP as substrate after 30 mins by scintillation counting
[4] = Intrinsic clearance in human liver microsomes at 1 umol/L after 20 mins in presence of NADPH; assay type: ADME, Microsome; settings: read-out: CLH
[5] = Intrinsic clearance in mouse liver microsomes at 1 umol/L after 20 mins in presence of NADPH; assay type: ADME, Microsome; settings: read-out: CLH
[6] = Thermodynamic solubility of the compound in Japanese pharmacopoeia 2nd fluid at pH 6.8 presence of 20 mmol/L of bile acid; assay type: physicochemical; settings: read-out: Therm_solubility
[7] = molecular target: Hepatocyte growth factor receptor (Homo sapiens, UniProt P08581)
Sequence of Hepatocyte growth factor receptor (P08581 whole entry): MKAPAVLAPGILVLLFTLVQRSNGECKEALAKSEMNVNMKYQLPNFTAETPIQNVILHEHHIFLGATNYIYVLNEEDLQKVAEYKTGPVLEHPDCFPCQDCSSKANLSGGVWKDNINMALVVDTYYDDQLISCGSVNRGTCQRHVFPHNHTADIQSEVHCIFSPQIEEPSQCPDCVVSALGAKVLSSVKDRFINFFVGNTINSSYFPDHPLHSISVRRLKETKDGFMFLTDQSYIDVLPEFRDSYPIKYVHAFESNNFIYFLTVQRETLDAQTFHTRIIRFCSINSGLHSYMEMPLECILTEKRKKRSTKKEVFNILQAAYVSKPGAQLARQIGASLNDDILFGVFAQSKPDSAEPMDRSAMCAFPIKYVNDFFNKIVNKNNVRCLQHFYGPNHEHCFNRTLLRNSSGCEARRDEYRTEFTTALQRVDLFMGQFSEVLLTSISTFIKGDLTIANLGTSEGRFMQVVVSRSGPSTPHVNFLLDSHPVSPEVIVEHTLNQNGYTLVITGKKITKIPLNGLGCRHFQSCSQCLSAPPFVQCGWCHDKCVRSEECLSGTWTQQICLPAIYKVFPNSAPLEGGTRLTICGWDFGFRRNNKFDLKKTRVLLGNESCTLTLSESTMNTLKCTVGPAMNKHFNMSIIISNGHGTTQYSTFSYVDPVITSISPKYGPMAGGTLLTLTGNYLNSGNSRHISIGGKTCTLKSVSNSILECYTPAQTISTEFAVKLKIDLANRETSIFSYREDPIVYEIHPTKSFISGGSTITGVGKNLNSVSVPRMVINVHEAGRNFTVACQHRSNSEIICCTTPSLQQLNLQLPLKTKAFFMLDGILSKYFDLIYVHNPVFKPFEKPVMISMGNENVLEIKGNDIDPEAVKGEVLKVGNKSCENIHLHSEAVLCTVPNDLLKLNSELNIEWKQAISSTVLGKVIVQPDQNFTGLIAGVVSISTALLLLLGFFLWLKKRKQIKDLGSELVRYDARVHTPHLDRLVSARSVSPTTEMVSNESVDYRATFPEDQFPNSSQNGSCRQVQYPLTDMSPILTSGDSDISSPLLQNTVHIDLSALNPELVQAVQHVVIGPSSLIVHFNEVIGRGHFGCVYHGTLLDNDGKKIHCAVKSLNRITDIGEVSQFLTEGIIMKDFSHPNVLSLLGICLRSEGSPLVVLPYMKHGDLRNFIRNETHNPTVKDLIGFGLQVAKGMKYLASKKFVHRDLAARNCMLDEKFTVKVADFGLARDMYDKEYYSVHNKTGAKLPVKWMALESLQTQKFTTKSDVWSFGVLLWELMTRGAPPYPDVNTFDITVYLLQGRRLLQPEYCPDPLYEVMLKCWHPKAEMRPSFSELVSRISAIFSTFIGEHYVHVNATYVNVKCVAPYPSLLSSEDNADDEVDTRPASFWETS

[8] = molecular target: Cyclin-dependent kinase 1 (Homo sapiens, UniProt P06493); experiment: Inhibition of CDK1
Insulin receptor = Insulin receptor (Homo sapiens, UniProt P06213); experiment: Inhibition of IR
[9] = molecular target: Protein kinase C theta type (Homo sapiens, UniProt Q04759); experiment: Inhibition of PKCtheta
[10] = molecular target: Platelet-derived growth factor receptor beta (Homo sapiens, UniProt P09619); experiment: Inhibition of PDGFRbeta
[11] = molecular target: Glycogen synthase kinase-3 beta (Homo sapiens, UniProt P49841); experiment: Inhibition of GSK3beta
[12] = molecular target: Proto-oncogene tyrosine-protein kinase Src (Homo sapiens, UniProt P12931)
[13] = molecular target: Fibroblast growth factor receptor 3 (Homo sapiens, UniProt P22607); experiment: Inhibition of FGFR3
[14] = molecular target: Mitogen-activated protein kinase 3 (Homo sapiens, UniProt P27361); experiment: Inhibition of ERK1
[15] = molecular target: Mitogen-activated protein kinase kinase kinase 1 (Homo sapiens, UniProt Q13233); experiment: Inhibition of MEKK1
[16] = molecular target: RAF proto-oncogene serine/threonine-protein kinase (Homo sapiens, UniProt P04049); experiment: Inhibition of c-RAF
[17] = molecular target: Inhibitor of nuclear factor kappa-B kinase subunit beta (Homo sapiens, UniProt O14920); experiment: Inhibition of IKKbeta
[18] = molecular target: Dual specificity mitogen-activated protein kinase kinase 1 (Homo sapiens, UniProt Q02750)
[19] = molecular target: Cyclin-dependent kinase 2 (Homo sapiens, UniProt P24941); experiment: Inhibition of CDK2
Angiopoietin-1 receptor = Angiopoietin-1 receptor (Homo sapiens, UniProt Q02763); experiment: Inhibition of TIE2
Sequence of Angiopoietin-1 receptor (Q02763 whole entry): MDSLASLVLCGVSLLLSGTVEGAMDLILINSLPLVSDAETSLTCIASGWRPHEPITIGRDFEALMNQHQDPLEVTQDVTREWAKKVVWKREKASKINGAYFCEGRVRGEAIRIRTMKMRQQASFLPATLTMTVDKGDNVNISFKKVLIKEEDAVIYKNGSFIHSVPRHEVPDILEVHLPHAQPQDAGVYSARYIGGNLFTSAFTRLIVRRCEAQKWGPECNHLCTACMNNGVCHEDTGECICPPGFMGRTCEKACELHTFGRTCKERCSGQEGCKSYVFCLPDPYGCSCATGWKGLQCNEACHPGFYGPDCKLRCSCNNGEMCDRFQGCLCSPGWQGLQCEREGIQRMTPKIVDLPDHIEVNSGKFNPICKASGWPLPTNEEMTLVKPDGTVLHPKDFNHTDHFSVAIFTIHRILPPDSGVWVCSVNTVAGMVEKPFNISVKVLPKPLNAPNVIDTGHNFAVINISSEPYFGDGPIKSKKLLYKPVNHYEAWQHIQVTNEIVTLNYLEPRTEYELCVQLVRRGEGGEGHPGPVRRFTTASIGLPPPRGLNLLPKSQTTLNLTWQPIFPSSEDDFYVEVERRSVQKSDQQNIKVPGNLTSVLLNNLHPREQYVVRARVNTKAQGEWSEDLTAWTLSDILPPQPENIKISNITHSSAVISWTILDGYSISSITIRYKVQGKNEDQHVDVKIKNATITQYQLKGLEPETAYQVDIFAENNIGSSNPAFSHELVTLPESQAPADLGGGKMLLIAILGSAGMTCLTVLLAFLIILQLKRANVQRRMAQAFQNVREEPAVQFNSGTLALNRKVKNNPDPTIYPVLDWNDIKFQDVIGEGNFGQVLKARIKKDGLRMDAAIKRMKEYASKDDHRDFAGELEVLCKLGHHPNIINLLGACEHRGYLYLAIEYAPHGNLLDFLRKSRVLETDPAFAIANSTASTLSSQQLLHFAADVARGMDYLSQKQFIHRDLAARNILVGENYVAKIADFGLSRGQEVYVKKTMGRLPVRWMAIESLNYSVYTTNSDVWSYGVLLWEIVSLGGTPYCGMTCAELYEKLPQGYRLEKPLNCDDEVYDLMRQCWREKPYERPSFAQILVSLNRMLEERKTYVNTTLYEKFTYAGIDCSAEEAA

Aurora kinase B = Aurora kinase B (Homo sapiens, UniProt Q96GD4); experiment: Inhibition of aurora B
Sequence of Aurora kinase B (Q96GD4 whole entry): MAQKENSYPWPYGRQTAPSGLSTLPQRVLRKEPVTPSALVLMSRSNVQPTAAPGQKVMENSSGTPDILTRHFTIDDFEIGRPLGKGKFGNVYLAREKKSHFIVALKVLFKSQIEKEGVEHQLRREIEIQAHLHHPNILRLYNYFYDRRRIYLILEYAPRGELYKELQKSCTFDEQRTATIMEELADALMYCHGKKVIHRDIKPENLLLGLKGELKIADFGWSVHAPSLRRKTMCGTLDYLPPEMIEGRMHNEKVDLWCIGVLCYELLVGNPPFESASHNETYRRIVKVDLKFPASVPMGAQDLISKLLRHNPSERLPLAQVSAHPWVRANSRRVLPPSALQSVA

[20] = molecular target: Mitogen-activated protein kinase 8 (Homo sapiens, UniProt P45983); experiment: Inhibition of JNK1
[21] = molecular target: Platelet-derived growth factor receptor alpha (Homo sapiens, UniProt P16234); experiment: Inhibition of PDGFRalpha
[22] = molecular target: Mast/stem cell growth factor receptor Kit (Homo sapiens, UniProt P10721); experiment: Inhibition of c-Kit
[23] = molecular target: Receptor tyrosine-protein kinase erbB-2 (Homo sapiens, UniProt P04626); experiment: Inhibition of HER2
[24] = molecular target: Serine/threonine-protein kinase Chk1 (Homo sapiens, UniProt O14757); experiment: Inhibition of CHK1
Rattus norvegicus [25] = experiment: Inhibition of BRAF in human HT-29 cells xenografted nude rat tumor assessed as reduction of ERK phosphorylation at 25 mg/kg, po; assay type: functional, organism-based; set-up: dose 25 mg/kg
[26] = Volume of distribution at steady state in rat at 1 mg/kg, iv; assay type: ADME, organism-based; set-up: dose 1 mg/kg, route intravenous; settings: in vivo, read-out: Vdss
[27] = AUC (0 to 24 hrs) in rat at 25 mg/kg, po; assay type: ADME, organism-based; set-up: time < 24 hr, dose 25 mg/kg, route oral; settings: plasma
[28] = Oral bioavailability in rat at 25 mg/kg; assay type: ADME, organism-based; settings: in vivo
Rattus norvegicus [29] = experiment: Toxicity in human HT-29 cells xenografted nude rat at 25 mg/kg, po qd for 2 weeks; assay type: organism-based; set-up: dose 25 mg/kg, route oral; settings: in vivo, 336 h
[30] = Cmax in rat at 25 mg/kg, po; assay type: ADME, organism-based; set-up: dose 25 mg/kg, route oral; settings: in vivo
HT-29 = experiment: Antitumor activity against human HT-29 cells xenografted in nude rat assessed as tumor regression at 25 mg/kg, po qd for 2 weeks; assay type: functional
[31] = Mean residence time in rat at 25 mg/kg, po; assay type: ADME, organism-based; set-up: dose 25 mg/kg, route oral; settings: in vivo
[32] = Mean residence time in rat at 1 mg/kg, iv; assay type: ADME, organism-based; set-up: dose 1 mg/kg, route intravenous; settings: in vivo
[33] = Total clearance in rat at 1 mg/kg, iv; assay type: ADME, organism-based; set-up: dose 1 mg/kg, route intravenous; settings: in vivo
[34] = AUC (0 to 24 hrs) in rat at 1 mg/kg, iv; assay type: ADME, organism-based; set-up: time < 24 hr, dose 1 mg/kg, route intravenous; settings: plasma

T1 sequence (P15056 2-766 V600E limits assumed): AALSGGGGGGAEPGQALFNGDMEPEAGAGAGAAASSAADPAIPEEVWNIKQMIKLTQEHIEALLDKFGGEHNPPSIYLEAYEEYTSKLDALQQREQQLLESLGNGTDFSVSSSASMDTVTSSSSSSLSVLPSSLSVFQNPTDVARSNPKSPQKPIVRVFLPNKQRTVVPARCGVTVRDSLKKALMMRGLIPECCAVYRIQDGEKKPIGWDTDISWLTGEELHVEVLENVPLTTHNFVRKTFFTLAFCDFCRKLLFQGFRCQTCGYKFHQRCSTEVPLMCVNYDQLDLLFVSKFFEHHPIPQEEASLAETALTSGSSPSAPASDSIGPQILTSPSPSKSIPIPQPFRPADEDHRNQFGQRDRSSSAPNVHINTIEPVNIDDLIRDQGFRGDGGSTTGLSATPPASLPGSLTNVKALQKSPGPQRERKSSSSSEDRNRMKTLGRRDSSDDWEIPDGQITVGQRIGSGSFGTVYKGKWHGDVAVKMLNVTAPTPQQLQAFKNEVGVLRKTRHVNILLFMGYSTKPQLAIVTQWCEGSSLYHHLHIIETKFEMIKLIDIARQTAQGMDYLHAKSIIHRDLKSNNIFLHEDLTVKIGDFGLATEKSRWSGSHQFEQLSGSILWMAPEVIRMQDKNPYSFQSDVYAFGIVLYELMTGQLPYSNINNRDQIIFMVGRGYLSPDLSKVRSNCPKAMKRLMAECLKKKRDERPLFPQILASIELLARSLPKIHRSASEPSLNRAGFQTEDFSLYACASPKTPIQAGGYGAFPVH
Sequence of Vascular endothelial growth factor receptor 2 (P35968 whole entry): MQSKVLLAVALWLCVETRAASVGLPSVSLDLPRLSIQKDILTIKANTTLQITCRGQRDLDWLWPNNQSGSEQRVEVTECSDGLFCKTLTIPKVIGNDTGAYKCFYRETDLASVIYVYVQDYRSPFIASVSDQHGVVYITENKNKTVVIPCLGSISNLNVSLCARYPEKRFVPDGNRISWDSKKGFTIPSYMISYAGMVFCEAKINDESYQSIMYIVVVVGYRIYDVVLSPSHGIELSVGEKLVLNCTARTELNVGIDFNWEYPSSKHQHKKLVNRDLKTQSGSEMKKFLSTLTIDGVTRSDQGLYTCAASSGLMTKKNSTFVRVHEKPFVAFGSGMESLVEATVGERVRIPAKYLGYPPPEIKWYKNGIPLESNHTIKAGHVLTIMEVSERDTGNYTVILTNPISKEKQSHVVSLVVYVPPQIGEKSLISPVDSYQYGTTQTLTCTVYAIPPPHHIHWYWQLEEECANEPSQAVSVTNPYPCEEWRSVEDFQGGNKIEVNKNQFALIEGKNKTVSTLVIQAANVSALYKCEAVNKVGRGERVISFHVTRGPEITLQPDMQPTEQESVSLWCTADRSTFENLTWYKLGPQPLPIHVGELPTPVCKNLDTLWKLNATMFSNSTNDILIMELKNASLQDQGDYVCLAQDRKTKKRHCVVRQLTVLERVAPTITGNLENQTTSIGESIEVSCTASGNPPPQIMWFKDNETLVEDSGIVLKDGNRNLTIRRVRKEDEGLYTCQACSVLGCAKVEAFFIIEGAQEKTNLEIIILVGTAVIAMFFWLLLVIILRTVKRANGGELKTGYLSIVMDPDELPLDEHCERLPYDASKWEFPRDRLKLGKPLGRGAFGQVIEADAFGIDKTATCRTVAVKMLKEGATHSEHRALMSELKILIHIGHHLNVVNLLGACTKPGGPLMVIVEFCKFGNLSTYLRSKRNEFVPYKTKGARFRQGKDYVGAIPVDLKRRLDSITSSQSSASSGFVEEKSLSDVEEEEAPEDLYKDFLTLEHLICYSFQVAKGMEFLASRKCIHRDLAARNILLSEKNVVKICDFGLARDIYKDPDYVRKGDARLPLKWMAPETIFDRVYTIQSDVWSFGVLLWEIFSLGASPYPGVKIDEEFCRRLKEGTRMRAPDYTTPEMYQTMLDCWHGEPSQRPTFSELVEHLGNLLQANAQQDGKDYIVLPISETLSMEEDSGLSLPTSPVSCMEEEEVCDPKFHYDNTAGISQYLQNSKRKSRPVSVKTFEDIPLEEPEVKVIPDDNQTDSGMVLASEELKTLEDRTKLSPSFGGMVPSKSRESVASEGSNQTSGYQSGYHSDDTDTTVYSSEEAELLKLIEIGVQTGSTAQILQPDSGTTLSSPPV

CC(=O)Nc1nc2cnc(Nc3cc(NC(=O)c4cccc(C5(C#N)CC5)c4Cl)ccc3C)nc2s1
IC50 [1]: 120 nM
IC50 [2]: 340 nM
IC50 [3]: 91 nM
microsomal CLint at 1 µM [4]: 73 µL/min/mg

CC(=O)Nc1nc2ccc(N(C)c3ccc(F)c(NC(=O)c4cccc(OC(C)(C)C#N)c4)c3)nc2s1
IC50 [1]: 30 nM
microsomal CLint at 1 µM [5]: 25 µL/min/mg
microsomal CLint at 1 µM [4]: 22 µL/min/mg

CC(C)(C#N)Oc1cccc(C(=O)Nc2cc(Nc3ccc4nc(NC(=O)C5CC5)sc4n3)ccc2F)c1Cl
IC50 [1]: 87 nM
IC50 [2]: 64 nM
solubility thermodynamic [6]: 0.91 µg/mL
IC50 [3]: 15 nM

CC(=O)Nc1nc2cnc(Nc3cc(NC(=O)c4cccc(CCC#N)c4)ccc3C)nc2s1
IC50 [1]: > 500 nM
IC50 [2]: 410 nM
IC50 [3]: 51 nM
microsomal CLint at 1 µM [4]: 35 µL/min/mg

CC(=O)Nc1nc2cnc(Nc3cc(NC(=O)c4cccc(CC(C)(C)C#N)c4)ccc3C)nc2s1
IC50 [1]: 150 nM
IC50 [2]: 300 nM
IC50 [3]: 100 nM
microsomal CLint at 1 µM [4]: 56 µL/min/mg

CN(c1ccc(F)c(NC(=O)c2cccc(OC(C)(C)C#N)c2Cl)c1)c1ccc2nc(NC(=O)C3CC3)sc2n1 [listing 1 of 2 here]
IC50 [7]: > 10000 nM
IC50 [8]: 3700 nM
IC50 (Insulin receptor): > 10000 nM
IC50 [9]: > 10000 nM
IC50 [10]: 91 nM
IC50 [11]: > 10000 nM
IC50 [12]: 130 nM
IC50 [13]: 86 nM
IC50 [14]: > 10000 nM
microsomal CLint at 1 µM [5]: 32 µL/min/mg
IC50 [15]: > 10000 nM
IC50 [16]: 23 nM
solubility thermodynamic [6]: 18 µg/mL
IC50 [17]: 8100 nM
IC50 [18]: 1000 nM
IC50 [19]: > 10000 nM
IC50 (Angiopoietin-1 receptor): 840 nM
IC50 (Aurora kinase B): 4000 nM
IC50 [20]: > 10000 nM
IC50 [21]: 43 nM
IC50 [22]: 430 nM
IC50 [23]: 1200 nM
microsomal CLint at 1 µM [4]: 25 µL/min/mg
IC50 [24]: > 10000 nM

CN(c1ccc(F)c(NC(=O)c2cccc(OC(C)(C)C#N)c2Cl)c1)c1ccc2nc(NC(=O)C3CC3)sc2n1.Cl
solubility thermodynamic [6]: 31 µg/mL

CN(c1ccc(F)c(NC(=O)c2cccc(OC(C)(C)C#N)c2Cl)c1)c1ccc2nc(NC(=O)C3CC3)sc2n1.O=S(=O)(O)O
solubility thermodynamic [6]: 35 µg/mL

CN(c1ccc(F)c(NC(=O)c2cccc(OC(C)(C)C#N)c2Cl)c1)c1ccc2nc(NC(=O)C3CC3)sc2n1 [listing 2 of 2 here]
inhibition (Rattus norvegicus [25]): Active

CC(=O)Nc1nc2cnc(Nc3cc(NC(=O)c4cccc(OC(C)(C)C#N)c4)ccc3C)nc2s1
IC50 [1]: 88 nM
IC50 [2]: 510 nM
IC50 [3]: 73 nM

CN(c1ccc(F)c(NC(=O)c2cccc(OC(C)(C)C#N)c2Cl)c1)c1ccc2nc(NC(=O)C3CC3)sc2n1.O.O=S(=O)(O)c1ccccc1
Vd [26]: 5.52 L/kg
AUC(0-t) at 24 h [27]: 5770 ng·h/mL
bioavailability [28]: 38.4%
Activity (Rattus norvegicus [29]): Non-toxic
Cmax [30]: 660 ng/mL
T/C (HT-29): -70%
MRT [31]: 5.26 h
solubility thermodynamic [6]: 37 µg/mL
MRT [32]: 3.13 h
clearance [33]: 29.2 mL/min/kg
AUC(0-t) at 24 h [34]: 600 ng·h/mL

CC(=O)Nc1nc2ccc(N(C)c3ccc(F)c(NC(=O)c4cccc(OC(C)(C)C#N)c4Cl)c3)nc2s1
IC50 [1]: 22 nM
microsomal CLint at 1 µM [5]: 55 µL/min/mg
microsomal CLint at 1 µM [4]: 45 µL/min/mg

Reference: ChEMBL document CHEMBL2203033, “Design and synthesis of novel DFG-out RAF/vascular endothelial growth factor receptor 2 (VEGFR2) inhibitors: 3. Evaluation of 5-amino-linked thiazolo[5,4-d]pyrimidine and thiazolo[5,4-b]pyridine derivatives” (Bioorg Med Chem, 2012)
